Results as given in publication PMC11207065, “Abietane Diterpenes from Medusantha martiusii and Their Anti-Neuroinflammatory Activity” (Molecules, 2024).

How the values were obtained:
Format in all cases: cell-based
[1] = Cell viability (MTT assay) in BV2 cells; conditions: mouse, BV2 microglial cells, mean ± SEM (n = 5)
Procedure: The cytotoxicity of compounds 1–7 was evaluated using the MTT (3-(4,5-dimethylthiazol-2-yl)-2,5-diphenyltetrazolium bromide) assay. The microglial BV2 cell line was obtained from the Rio de Janeiro Cell Bank (BCRJ), Brazil. The cells were cultured in Roswell Park Memorial Institute medium (RPMI; Sigma Aldrich, St. Louis, MO, USA) supplemented with 10% fetal bovine serum (FBS; Gibco, Grand Island, NY, USA) and 1% penicillin-streptomycin (Sigma Aldrich) at 37 °C with 5% CO2. Cells were seeded into 96-well plates at 1 × 10^5 cells/mL and incubated overnight. After that, the cells were incubated with compounds 1 to 7 (12.5, 25, or 50 μM) in five replicates for 24 h. Then, 110 μL of the supernatant were removed, and 10 μL of MTT solution (5 mg/mL) (Sigma Aldrich, St. Louis, MO, USA) were added. The plates were further incubated for four hours, followed by the addition of sodium dodecyl sulfate (SDS) (100 µL/well) to dissolve the formazan. Optical densities were measured using a spectrophotometer (BioTek Instruments microplate reader, Sinergy HT, Winooski, VT, USA) at a wavelength of 570 nm.

[2] = tested on: nitric oxide production in LPS and IFN-γ-stimulated BV2 cells; test: Nitric oxide (nitrite, Griess method) measurement in LPS and IFN-γ-stimulated BV2 cells; conditions: 24 h; for Effect on nitrite (NO) levels versus control group: LPS and IFN-γ-stimulated BV2 cells; for IC50: Mus musculus, BV-2, LPS (500 ng/mL) and IFN-γ (5 ng/mL)-stimulated BV2 cells, 3.125–25 µM, mean ± SEM, read-out: IC50 on nitric oxide production inhibition
Procedure: (§1) To determine the NO and TNF-α levels, BV2 cells were seeded in 96-well plates (1 × 10^6 cells/mL) in RPMI medium supplemented with 10% FBS and 1% penicillin-streptomycin in a 5% CO2 incubator at 37 °C. After four hours, the cells were exposed to LPS (500 ng/mL, Sigma Aldrich) and IFN-γ (5 ng/mL, Thermo Fisher) in the absence or presence of compounds 1 to 7 at a final concentration of 12.5 µM (for NO and TNF-α measurement) or 3.125–25 µM (to calculate the IC50 values on NO production inhibition), in five replicates. Quercetin (20 µM) was used as a positive control. After 24 h, cell-free supernatants were collected for NO quantification using the Griess method or stored at −80 °C for cytokine concentration determination. The TNF-α concentrations in the BV2 cell culture supernatants were assessed via enzyme-linked immunosorbent assay (ELISA) with an Invitrogen kit (Thermo Fisher, Viena, Austria).

[3] = tested on: TNF-α release from LPS and IFN-γ-stimulated BV2 cells; test: TNF-α measurement (ELISA) in LPS and IFN-γ-stimulated BV2 cells; conditions: 12.5 µM, 24 h
Procedure: as §1

| IC50 [2] | Compound | viability at 24 h, 12.5 µM [1] | viability at 24 h, 25 µM [1] | viability at 24 h, 50 µM [1] | Effect on nitrite (NO) levels versus control group ([2]; 12.5 µM) | Effect on TNF-α levels versus control group [3] | Effect on nitrite (NO) levels versus control group ([2]; 20 µM (positive control)) |
| --- | --- | --- | --- | --- | --- | --- | --- |
| 3.12 ± 0.75 µM | CC(C)C1=CC(=O)C2=C(C1=O)C(O)CC1C2(C)CC(O)C(O)C1(C)C (stereo not shown) [Compound 1, Medusanthol A] | 88 ± 2.57% | 85.1 ± 1.54% | 76.3 ± 2.16% | significantly reduced nitrite levels | significantly reduced TNF-α levels |  |
|  | CC(C)c1cc2c(cc1O)[C@@]1(C)C[C@@H](O)CC(C)(C)[C@@H]1CC2 [Compound 4, salviol] | 92.29 ± 0.6% | 85.41 ± 0.82% | 73.6 ± 2.73% | significantly reduced nitrite levels |  |  |
|  | CC(C)c1cc2c(cc1O)[C@@]1(C)C[C@@H](O)CC(C)(C)[C@@H]1CC2=O [Compound 6, 2α-hydroxysugiol] | 85.7 ± 1.11% | 81.7 ± 1.37% | 66.8 ± 3.61% | No significant effect |  |  |
|  | CC(=O)OC1CC(C)(C)C2CC3OC(=O)C2(C1)c1cc(O)c(C(C)C)cc1O3 (stereo not shown) [Compound 7, Medusanthol E] | 82.74 ± 0.62% | 84.9 ± 1.4% | 81.8 ± 1.24% | significantly reduced nitrite levels |  |  |
| 11.8 ± 1.5 µM | O=c1c(O)c(-c2ccc(O)c(O)c2)oc2cc(O)cc(O)c12 [Quercetin, quercetin, reference compound] |  |  |  |  |  | significantly reduced nitrite levels |
|  | CC(=O)OC1CC(C)(C)C2CCc3cc(C(C)C)c(O)cc3C2(C(=O)O)C1 (stereo not shown) [Compound 5, Medusanthol D] | 86.2 ± 4.53% | 86.8 ± 2.52% | 82.9 ± 3.63% | No significant effect |  |  |
|  | CC(C)c1cc2c(cc1O)C1(C)CC(O)C(O)C(C)(C)C1CC2 (stereo not shown) [Compound 3, Medusanthol C] | 87.4 ± 2.35% | 82.2 ± 0.96% | 76.4 ± 3.14% | significantly reduced nitrite levels |  |  |

| Compound | IC50 [2] | viability at 24 h, 12.5 µM [1] | viability at 24 h, 25 µM [1] | viability at 24 h, 50 µM [1] | Effect on nitrite (NO) levels versus control group ([2]; 12.5 µM) | Effect on TNF-α levels versus control group [3] | Effect on nitrite (NO) levels versus control group ([2]; 20 µM (positive control)) |
| --- | --- | --- | --- | --- | --- | --- | --- |
| CC(C)c1cc2c(cc1O)C1(C)CC(O)C(O)C(C)(C)C1CC2=O (stereo not shown) [Compound 2, Medusanthol B] | 15.5 ± 7.56 µM | 81.93 ± 0.65% | 85.84 ± 0.85% | 75 ± 3.11% | significantly reduced nitrite levels | significantly reduced TNF-α levels |  |
